Columns and labels:
Assay type in all cases: in vivo
[1] = tested on: kochia (Bassia scoparia); experiment: Test C preemergence, kochia; conditions: 0 is no effect, 100 is complete control
Outline: (§1)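 Steps: sow in loam soil blended with sand; treat soil preemergence by directed spray, or treat young plants (2–10 cm, one to two leaves) postemergence; hold in greenhouse 10 or 12 days; rate injury visually relative to untreated controls on a 0–100 scale.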

[2] = tested on: soybean (Glycine max); experiment: Test C preemergence, soybean; conditions: 0 is no effect, 100 is complete control
Outline: as §1

[3] = tested on: wheat (Triticum aestivum); experiment: Test C preemergence, wheat; conditions: 0 is no effect, 100 is complete control
[4] = tested on: barnyardgrass (Echinochloa crusgalli); experiment: Test D flooded paddy test, barnyardgrass; design: key: 0 = no effect, 100 = complete control; conditions: 250 g ai/ha, Flood; applied to paddy water at 2-leaf stage; visual rating after 13 days; scale 0 (no effect) to 100 (complete control)
Outline: (§2)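 Visual response scores run 0 (no effect) to 100 (complete control), judged against controls 13 days after treatment. Compounds were added to paddy water 3 cm deep over soil, around plants at the 2-leaf stage kept in a greenhouse.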

[5] = tested on: foxtail, giant (giant foxtail, Setaria faberi); experiment: Test C preemergence, giant foxtail; conditions: 0 is no effect, 100 is complete control
Outline: as §1

[6] = tested on: ryegrass, Italian (Italian ryegrass, Lolium multiflorum); experiment: Test C preemergence, Italian ryegrass; conditions: 0 is no effect, 100 is complete control
Outline: as §1

[7] = tested on: goosegrass (Eleusine indica); experiment: Test C postemergence, goosegrass; conditions: for Goosegrass plant response rating: 31 g ai/ha Postemergence, visual injury, 0 to 100 scale (0 no effect, 100 complete control); for Plant response rating (0 to 100 scale), Goosegrass: 125 g ai/ha Postemergence, 0 is no effect, 100 is complete control
Outline: as §1

[8] = tested on: ducksalad (Heteranthera limosa); experiment: Test D flooded paddy test, ducksalad; design: key: 0 = no effect, 100 = complete control; conditions: 250 g ai/ha, Flood; applied to paddy water at 2-leaf stage; visual rating after 13 days; scale 0 (no effect) to 100 (complete control)
Outline: as §2

[9] = tested on: oat, wild (wild oat, Avena fatua); experiment: Test C postemergence, wild oat; conditions: for Oat, Wild plant response rating: 31 g ai/ha Postemergence, visual injury, 0 to 100 scale (0 no effect, 100 complete control); for Plant response rating (0 to 100 scale), Oat, Wild: 125 g ai/ha Postemergence, 0 is no effect, 100 is complete control

Structure (SMILES) | Plant response rating (0 to 100 scale), Kochia ([1]; 31 g ai/ha Preemergence) | Plant response rating (0 to 100 scale), Kochia ([1]; 125 g ai/ha Preemergence) | Plant response rating (0 to 100 scale), Soybean ([2]; 31 g ai/ha Preemergence) | Plant response rating (0 to 100 scale), Soybean ([2]; 125 g ai/ha Preemergence) | Plant response rating (0 to 100 scale), Wheat ([3]; 31 g ai/ha Preemergence) | Plant response rating (0 to 100 scale), Wheat ([3]; 125 g ai/ha Preemergence) | Plant response rating, Barnyardgrass [4] | Plant response rating (0 to 100 scale), Foxtail, Giant ([5]; 31 g ai/ha Preemergence) | Plant response rating (0 to 100 scale), Foxtail, Giant ([5]; 125 g ai/ha Preemergence) | Plant response rating (0 to 100 scale), Ryegrass, Italian ([6]; 31 g ai/ha Preemergence) | Plant response rating (0 to 100 scale), Ryegrass, Italian ([6]; 125 g ai/ha Preemergence) | Goosegrass plant response rating [7] | Plant response rating (0 to 100 scale), Goosegrass [7] | Plant response rating, Ducksalad [8] | Oat, Wild plant response rating [9] | Plant response rating (0 to 100 scale), Oat, Wild [9]
Cc1cc(C)c(N2CCC(OC3CC3)C2=O)cc1NS(=O)(=O)C(F)(F)F (single isomer, unassigned) [Compound 29] | 90 | 100 | 90 | 100 | 90 | 100 | 95 | 90 | 100 | 100 | 100 | 90 | 90 | 45 | 20 | 80
Cc1cc(C)c(N2CCC(OC3CC3)C2=O)cc1NS(=O)(=O)C(F)(F)F (single isomer, unassigned) [Compound 30] | 90 | 100 | 80 | 90 | 90 | 100 | 95 | 100 | 100 | 100 | 100 | 80 | 90 | 90 | 50 | 80
Cc1cc(C)c(N2CC/C(=N\O)C2=O)cc1NS(=O)(=O)C(F)(F)F [Compound 10, 1,1,1-trifluoro-N-[5-[3-(hydroxyimino)-2-oxo-1-pyrrolidinyl]-2,4-dimethylphenyl]methanesulfonamide] | 90 | 100 | 60 | 70 | 90 | 100 | 0 | 90 | 100 | 50 | 100 | 90 | 90 | 90 | 80 | 80
C=CCO/N=C1\CCN(c2cc(NS(=O)(=O)C(F)(F)F)c(C)cc2C)C1=O [Compound 11] | 80 | 100 | 50 | 90 | 90 | 100 | 25 | 100 | 100 | 40 | 90 | 90 | 100 | 100 | – | –
CCO/N=C1\CCN(c2cc(NS(=O)(=O)C(F)(F)F)c(C)cc2C)C1=O [Compound 12, N-[5-[3-(ethoxyimino)-2-oxo-1-pyrrolidinyl]-2,4-dimethylphenyl]-1,1,1-trifluoromethanesulfonamide] | 100 | 100 | 90 | 100 | 90 | 100 | 0 | 100 | 100 | 90 | 100 | 100 | 100 | 100 | 90 | 90
C#CCO/N=C1\CCN(c2cc(NS(=O)(=O)C(F)(F)F)c(C)cc2C)C1=O [Compound 13, N-[2,4-dimethyl-5-[2-oxo-3-[(2-propyn-1-yloxy)imino]-1-pyrrolidinyl]phenyl]-1,1,1-trifluoromethanesulfonamide] | 100 | 100 | 80 | 100 | 90 | 100 | 10 | 100 | 100 | 40 | 100 | 70 | 100 | 100 | 90 | 90
Cc1cc(C)c(N2CCC(O)C2=O)cc1NS(=O)(=O)C(F)(F)F (stereo not shown) [Compound 14] | 50 | 100 | 100 | 100 | 50 | 100 | 0 | 80 | 100 | 40 | 100 | 60 | 90 | 65 | 30 | 60
COC(=O)N(c1cc(N2CCC(OC3CC3)C2=O)c(C)cc1C)S(=O)(=O)C(F)(F)F (stereo not shown) [Compound 16] | 0 | 0 | 20 | 20 | 0 | 0 | 0 | 0 | 0 | 0 | 0 | 0 | 0 | 0 | 0 | 0
CC(=O)N(c1cc(N2CCC(OC3CC3)C2=O)c(C)cc1C)S(=O)(=O)C(F)(F)F (stereo not shown) [Compound 17] | 80 | 100 | 80 | 100 | 30 | 100 | 85 | 90 | 100 | 100 | 100 | 90 | 90 | 95 | 30 | 70
Cc1cc(C)c(N(C(=O)OC(C)C)S(=O)(=O)C(F)(F)F)cc1N1CCC(OC2CC2)C1=O (stereo not shown) [Compound 18] | 0 | 60 | 0 | 30 | 0 | 0 | 0 | 0 | 0 | 0 | 0 | 0 | 0 | 0 | 0 | 0
CCOC(=O)N(c1cc(N2CCC(OC3CC3)C2=O)c(C)cc1C)S(=O)(=O)C(F)(F)F (stereo not shown) [Compound 19] | 0 | 70 | 30 | 90 | 0 | 10 | 0 | 0 | 10 | 0 | 0 | 0 | 90 | 0 | 0 | 30
CCCC(=O)OCN(c1cc(N2CCC(OC3CC3)C2=O)c(C)cc1C)S(=O)(=O)C(F)(F)F (stereo not shown) [Compound 20] | 80 | 100 | 70 | 90 | 70 | 100 | 90 | 90 | 100 | 100 | 100 | 90 | 90 | 90 | 30 | 80

Reference: patent US20240158348A1, “HERBICIDAL CYCLIC AMIDES N-SUBSTITUTED WITH A HALOALKYLSULFONYLANILIDE GROUP” (FMC Corporation, priority 2021, published 2024)
